Assays:
CDK6/CyclinD1 = target: T1, CDK6/CyclinD1 (Homo sapiens, UniProt Q00534); experiment: In vitro cell-free CDK6/CyclinD1 kinase activity assay (TR-FRET); type: biochemical; conditions: ATP at Km
T1 construct: purchased Carna 04-114
Procedure: It should be noted that the assay can also be conducted by a similar method. The assay steps in this Test Example are as follows:
The CDK6/CyclinD1 kinase activity was determined using a time-resolved fluorescence resonance energy transfer (TR-FRET) method. Measurements were performed in a reaction volume of 20 μL using 384-well assay plates. […] The reaction was stopped by adding a mixture of a peptide antibody (trade name: Cisbio, product No. 64CUSKAY) and Sa-XL665 (trade name: Cisbio, product No. 610SAXLB) diluted in HTRF KinEASE detection buffer (trade name: Cisbio, product No. 62SDBRDF, containing EDTA). After the mixture was incubated for 1 hour at room temperature, the plate was read. The TR-FRET signal was measured on a multimode plate reader (EnVision™, a multi-function microplate detector, PerkinElmer) at an excitation wavelength (λEx) of 330 nm and detection wavelengths (λEm) of 615 and 665 nm. The activity was determined by the ratio of fluorescence at 665 nm to that at 615 nm. For each compound, the enzyme activities of different concentrations of the compound were measured to determine IC50. The negative control contained no inhibitor. Two no-enzyme controls were used to determine baseline fluorescence levels. IC50 was obtained by fitting using the GraphPad 6.02 software.
8-10 concentrations were prepared for each compound, and formulated in DMSO. The stock concentration was 200× the working concentration. For example, if the working concentration was 100 nM, the corresponding concentration of the formulated stock solution was 20 μM.
In the analysis of in vitro inhibitory activity on CDK kinase, the IC50 value of each of the Example compounds and Reference Example compounds was determined.

MCF-7 cells = experiment: Cell viability assay, MCF-7 cells (CellTiter-Glo, 168 h); type: cell-based; conditions: Homo sapiens, MCF7
Procedure: An in vitro cell viability assay was conducted using some Example compounds following the steps below:
1. After recovery, MCF-7 cells (obtained from the Shanghai Cell Bank of the Chinese Academy of Sciences) were cultured at 37° C., 5% CO2, and 95% humidity.
2. 8 compound solutions at different concentrations were prepared for each Example compound. 50 μL of the compound solution at each concentration was added to a 96-well black plate.
3. The cell concentration was adjusted to about 30,000 cells/mL. 100 μL of the cell suspension was added to the 96-well plate, and mixed well to a final cell density of about 3,000 cells/well.
4. The 96-well plate was incubated at 37° C., 5% CO2, and 95% humidity for 168 h, i.e., 7 days.
5. The cell survival rate was measured by the method of CellTiter-Glo® Luminescent Cell Viability Assay (Promega, Cat #G7572). The fluorescence data were read on a microplate reader (EnVision™, a multi-function microplate detector, PerkinElmer).
6. The obtained fluorescence data were analyzed using the GraphPad Prism software. The cell survival rate was calculated for each Example compound at each concentration, and the IC50 interval of each Example compound was determined.

T1 sequence (Q00534 whole entry): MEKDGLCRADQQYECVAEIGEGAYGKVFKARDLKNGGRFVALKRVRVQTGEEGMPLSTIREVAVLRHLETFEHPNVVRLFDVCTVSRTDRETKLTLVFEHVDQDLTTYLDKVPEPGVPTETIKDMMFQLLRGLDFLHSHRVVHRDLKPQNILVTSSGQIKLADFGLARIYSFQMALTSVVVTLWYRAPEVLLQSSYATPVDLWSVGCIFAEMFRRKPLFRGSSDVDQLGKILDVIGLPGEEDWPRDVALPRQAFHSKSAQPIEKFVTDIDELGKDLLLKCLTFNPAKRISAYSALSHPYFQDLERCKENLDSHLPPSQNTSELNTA
T1 sequence (P24385 whole entry partner): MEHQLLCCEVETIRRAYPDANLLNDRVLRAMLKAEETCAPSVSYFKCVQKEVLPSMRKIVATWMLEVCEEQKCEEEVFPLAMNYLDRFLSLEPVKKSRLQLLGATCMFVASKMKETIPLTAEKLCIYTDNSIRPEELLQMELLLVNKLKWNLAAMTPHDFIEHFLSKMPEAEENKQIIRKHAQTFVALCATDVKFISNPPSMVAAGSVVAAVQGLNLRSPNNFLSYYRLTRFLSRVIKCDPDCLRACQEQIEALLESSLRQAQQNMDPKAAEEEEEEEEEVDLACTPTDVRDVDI

Compound | IC50 (CDK6/CyclinD1) [nM] | IC50 (MCF-7 cells) [nM]
[2H]C([2H])([2H])N1CCN(c2ccc(Nc3ncc4cc(C(=O)N(C([2H])([2H])[2H])C([2H])([2H])[2H])c(-c5ccc(Cl)cc5)n4n3)nc2)CC1 [Example 127] | < 100 | < 500
CN(C)C(=O)c1cc2cnc(Nc3ccc(N4CCN(C5CC5)CC4)cn3)nn2c1C1=CCCC1 [Example 109] | < 100 | < 500
N#Cc1cc2cnc(Nc3ccc(N4CCNCC4)cc3)nn2c1-c1cccnc1 [Example 12] | < 100 | < 500
CN(C)C(=O)c1cc2cnc(Nc3ccc(N4CCC5(CC4)OCCO5)cn3)nn2c1C1=CCCC1 [Example 37] | < 100 | 500 to 2500
COc1cc(F)ccc1-c1c(C#N)cc2cnc(Nc3ccc(N4CCNCC4)cc3)nn12 [Example 11] | < 100 | < 500
[2H]C([2H])([2H])C([2H])([2H])N1CCN(c2ccc(Nc3ncc4cc(C(=O)N(C)C)c(C5=CCCC5)n4n3)nc2)CC1 [Example 104] | < 100 | < 500
Cc1n[nH]cc1-c1cc2cnc(Nc3ccc(N4CCNCC4)cn3)nn2c1C1=CCCC1 [Example 85] | < 100 | < 500
CN(C)C(=O)c1cc2cnc(Nc3ccc(N4CCC5(CCNCC5)CC4)cn3)nn2c1C1=CCCC1 [Example 33] | < 100 | < 500
C1=C(c2c(-c3cccs3)cc3cnc(Nc4ccc(N5CCNCC5)cn4)nn23)CCC1 [Example 75] | < 100 | 500 to 2500
Cc1noc(C)c1-c1c(-c2cnn(C)c2)cc2cnc(Nc3ccc(N4CCNCC4)cn3)nn12 [Example 68] | 100 to 1000 | 2500 to 10000
CN1CCN(c2ccc(Nc3ncc4cc(C(=O)N(C)C)c(C5=CCOCC5)n4n3)nc2)CC1 [Example 105] | < 100 | < 500
COCCOc1ccc(-c2c(C(=O)N(C)C)cc3cnc(Nc4ccc(N5CCC6(CCNCC6)C5)cn4)nn23)cc1 [Example 50] | < 100 | 2500 to 10000
COc1ccccc1-c1c(C#N)cc2cnc(Nc3ccc(N4CCNCC4)cc3)nn12 [Example 10] | < 100 | < 500
Cn1cc(-c2cc3cnc(Nc4ccc(N5CCNCC5)cn4)nn3c2C2CCCC2)cn1 [Example 71] | < 100 | 500 to 2500
C1=C(c2c(-c3cncnc3)cc3cnc(Nc4ccc(N5CCNCC5)cn4)nn23)CCC1 [Example 84] | < 100 | < 500
N#Cc1cc2cnc(Nc3ccc(N4CCNCC4)cc3)nn2c1C1=CCCC1 [Example 2] | < 100 | < 500
Cc1noc(C)c1-c1c(C(=O)N(C)C)cc2cnc(Nc3ccc(N4CC5(CCNC5)C4)cn3)nn12 [Reference Example 134, reference compound] | 1000 to 3000 | > 10000
Cc1ccc(-c2cc3cnc(Nc4ccc(N5CCNCC5)cn4)nn3c2C2=CCCC2)cn1 [Example 89] | < 100 | < 500
Cc1ncc(-c2cc3cnc(Nc4ccc(N5CCNCC5)cn4)nn3c2C2=CCCC2)cn1 [Example 78] | < 100 | 2500 to 10000
N#Cc1cc2cnc(Nc3ccc(N4CCNCC4)cn3)nn2c1C1=CCCC1 [Example 25] | < 100 | < 500
[2H]C([2H])([2H])N(C(=O)c1cc2cnc(Nc3ccc(N4CCN(C)CC4)cn3)nn2c1-c1ccc(OC)cc1)C([2H])([2H])[2H] [Example 121] | < 100 | < 500
[2H]C([2H])([2H])N(C(=O)c1cc2cnc(Nc3ccc(N4CCN(C)CC4)cn3)nn2c1C1=CCOCC1)C([2H])([2H])[2H] [Example 119] | < 100 | < 500
CN(C)C(=O)c1cc2cnc(Nc3ccc(N4CCNCC4)cn3)nn2c1-c1ccc(F)cc1 [Example 32] | < 100 | < 500
Cn1cc(-c2c(Br)c3cnc(Nc4ccc(N5CCNCC5)cc4)nn3c2Br)cn1 [Example 8] | < 100 | 500 to 2500
CN(C)C(=O)c1cc2cnc(Nc3ccc(N4CC5(CCNC5)C4)cn3)nn2c1-c1ccncc1 [Example 69] | < 100 | 2500 to 10000

Source: US20230002393A1, “CDK KINASE INHIBITOR” (BEIJING BENICALL BIOTECH CO., LTD., priority 2019, published 2023)
